{
  "source": "paper PMC4506051",
  "about": "“Pharmacokinetic Profiles of Active Ingredients and Its Metabolites Derived from Rikkunshito, a Ghrelin Enhancer, in Healthy Japanese Volunteers: A Cross-Over, Randomized Study” (PLoS ONE, 2015)",
  "key": {"[1]": {"test": "Exploratory trial: plasma concentration of rikkunshito ingredients after single oral rikkunshito 7.5 g", "type": "in vivo", "how_it_was_run": "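Plasma and urine levels were measured by LC–MS/MS after one 7.5 g oral dose of rikkunshito. Samples were collected before dosing and at 0.5–8 h for blood, or in 0–4 h and 4–8 h fractions for urine. Synephrine was determined after protein-removal plate cleanup; the other ingredients after β-glucuronidase deconjugation (2 h, 37°C) and SPE.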"}, "[2]": {"test": "Method validation: stability in blood"}, "[3]": {"test": "Method validation: long-term stability in plasma"}, "[4]": {"test": "Method validation: short-term stability in plasma"}, "[5]": {"test": "Method validation: post-preparative stability (autosampler)"}, "[6]": {"test": "Dose proportionality (linearity) test by power model for C max and AUC0-last", "conditions": "for Dose proportionality test using power model, β: rikkunshito 2.5, 5.0 or 7.5 g; for Dose proportionality test using power model, Inference: linear when 90% CI of β included 1, CIlower ≥0.8, and CIupper ≤1.25", "procedure": "The dose proportionality was analyzed via a power model [21, 22]. […] Evaluation of linearity of the dosage-exposure relationship was conducted with Phoenix WinNonlin and SAS 9.2 (SAS Institute, Inc., Cary, NC)."}, "5-HT2BR": {"tested_on": "5-HT2BR", "parameters": "method as in PMID 18439428", "conditions": "cited from earlier work"}, "[7]": {"test": "Method validation: freeze-thaw stability in plasma", "conditions": "deep freezer (−30°C to −10°C), after 3 cycles of freeze-thaw"}, "[8]": {"test": "Formation of ingredients derived from rikkunshito in formulation, blood, and urine (S11 Table summary)", "conditions": "after rikkunshito administration, per ingredient in the formulation"}},
  "data": [
    {"smiles": "CC1(C)[C@@H](O)CC[C@]2(C)[C@H]3C(=O)C=C4[C@@H]5C[C@@](C)(C(=O)O)CC[C@]5(C)CC[C@@]4(C)[C@]3(C)CC[C@@H]12", "note": "[18β-Glycyrrhetinic acid]", "values": [
      {"measurement": "Cmax", "setting": "[1]; human, in vivo", "result": 58.2, "unit": "ng/mL"},
      {"measurement": "Stability in blood, RR", "setting": "[2]; 1600 pg/mL, at room temperature for 2 h", "result": 104.2, "unit": "%"},
      {"measurement": "Stability in blood, RR", "setting": "[2]; 1600 pg/mL, on ice for 2 h", "result": 108.8, "unit": "%"},
      {"measurement": "Stability in blood, RR", "setting": "[2]; 64000 pg/mL, at room temperature for 2 h", "result": 98.2, "unit": "%"},
      {"measurement": "Stability in blood, RR", "setting": "[2]; 64000 pg/mL, on ice for 2 h", "result": 99.1, "unit": "%"},
      {"measurement": "Long-term stability, RR", "setting": "[3]; 1600 pg/mL, freezer (−30°C to −10°C) for 13 days", "result": 102.6, "unit": "%"},
      {"measurement": "Long-term stability, RR", "setting": "[3]; 1600 pg/mL, freezer (−30°C to −10°C) for 39 days", "result": 108.3, "unit": "%"},
      {"measurement": "Long-term stability, RR", "setting": "[3]; 1600 pg/mL, freezer (−30°C to −10°C) for 228 days", "result": 113.5, "unit": "%"},
      {"measurement": "Long-term stability, RR", "setting": "[3]; 64000 pg/mL, freezer (−30°C to −10°C) for 13 days", "result": 113.1, "unit": "%"},
      {"measurement": "Long-term stability, RR", "setting": "[3]; 64000 pg/mL, freezer (−30°C to −10°C) for 39 days", "result": 104.4, "unit": "%"},
      {"measurement": "Long-term stability, RR", "setting": "[3]; 64000 pg/mL, freezer (−30°C to −10°C) for 228 days", "result": 109.2, "unit": "%"},
      {"measurement": "Short-term stability, RR", "setting": "[4]; 1600 pg/mL, at room temperature for 4 h", "result": 89.0, "unit": "%"},
      {"measurement": "Short-term stability, RR", "setting": "[4]; 1600 pg/mL, at room temperature for 25 h", "result": 90.2, "unit": "%"},
      {"measurement": "Short-term stability, RR", "setting": "[4]; 64000 pg/mL, at room temperature for 4 h", "result": 98.9, "unit": "%"},
      {"measurement": "Short-term stability, RR", "setting": "[4]; 64000 pg/mL, at room temperature for 25 h", "result": 105.0, "unit": "%"},
      {"measurement": "Post-preparative stability, RR", "setting": "[5]; 1600 pg/mL, autosampler set at 4°C for 24 h", "result": 106.0, "unit": "%"},
      {"measurement": "Post-preparative stability, RR", "setting": "[5]; 1600 pg/mL, autosampler set at 4°C for 48 h", "result": 110.8, "unit": "%"},
      {"measurement": "Post-preparative stability, RR", "setting": "[5]; 64000 pg/mL, autosampler set at 4°C for 24 h", "result": 104.9, "unit": "%"},
      {"measurement": "Post-preparative stability, RR", "setting": "[5]; 64000 pg/mL, autosampler set at 4°C for 48 h", "result": 111.4, "unit": "%"},
      {"measurement": "Dose proportionality test using power model, β", "setting": "[6]; AUC0-last", "result": 0.979},
      {"measurement": "Dose proportionality test using power model, β", "setting": "[6]; Cmax", "result": 0.819}
    ]},
    {"smiles": "COc1ccc(-c2cc(=O)c3c(OC)c(OC)c(OC)c(OC)c3o2)cc1OC", "note": "[Nobiletin]", "values": [
      {"measurement": "Plasma concentration, 0 h", "setting": "[1]; 0 h (preadministration), single oral rikkunshito 7.5 g, mean ± S.D., n = 4", "result": "BQL"},
      {"measurement": "Plasma concentration, 0.5 h", "setting": "[1]; 0.5 h after single oral rikkunshito 7.5 g, mean ± S.D., n = 4", "result": "0.047 ± 0.0474", "unit": "ng/mL"},
      {"measurement": "Plasma concentration, 1 h", "setting": "[1]; 1 h after single oral rikkunshito 7.5 g, mean ± S.D., n = 4", "result": "0.0282 ± 0.0389", "unit": "ng/mL"},
      {"measurement": "Plasma concentration, 2 h", "setting": "[1]; 2 h after single oral rikkunshito 7.5 g, mean ± S.D., n = 4", "result": "0.00545 ± 0.0109", "unit": "ng/mL"},
      {"measurement": "Plasma concentration, 4 h", "setting": "[1]; 4 h after single oral rikkunshito 7.5 g, mean ± S.D., n = 4", "result": "BQL"},
      {"measurement": "Plasma concentration, 8 h", "setting": "[1]; 8 h after single oral rikkunshito 7.5 g, mean ± S.D., n = 4", "result": "BQL"},
      {"measurement": "5-HT2BR inhibitory/antagonistic activity", "setting": "5-HT2BR", "result": "most potent 5-HT2BR antagonistic activity among all rikkunshito ingredients"},
      {"measurement": "Stability in blood, RR", "setting": "[2]; 8 pg/mL, at room temperature for 2 h", "result": 86.3, "unit": "%"},
      {"measurement": "Stability in blood, RR", "setting": "[2]; 8 pg/mL, on ice for 2 h", "result": 91.7, "unit": "%"},
      {"measurement": "Stability in blood, RR", "setting": "[2]; 320 pg/mL, at room temperature for 2 h", "result": 99.2, "unit": "%"},
      {"measurement": "Stability in blood, RR", "setting": "[2]; 320 pg/mL, on ice for 2 h", "result": 91.3, "unit": "%"},
      {"measurement": "Long-term stability, RR", "setting": "[3]; 8 pg/mL, freezer (−30°C to −10°C) for 13 days", "result": 91.2, "unit": "%"},
      {"measurement": "Long-term stability, RR", "setting": "[3]; 8 pg/mL, freezer (−30°C to −10°C) for 39 days", "result": 88.0, "unit": "%"},
      {"measurement": "Long-term stability, RR", "setting": "[3]; 8 pg/mL, freezer (−30°C to −10°C) for 228 days", "result": 89.9, "unit": "%"},
      {"measurement": "Long-term stability, RR", "setting": "[3]; 320 pg/mL, freezer (−30°C to −10°C) for 13 days", "result": 114.0, "unit": "%"},
      {"measurement": "Long-term stability, RR", "setting": "[3]; 320 pg/mL, freezer (−30°C to −10°C) for 39 days", "result": 114.3, "unit": "%"},
      {"measurement": "Long-term stability, RR", "setting": "[3]; 320 pg/mL, freezer (−30°C to −10°C) for 228 days", "result": 103.2, "unit": "%"},
      {"measurement": "Short-term stability, RR", "setting": "[4]; 8 pg/mL, at room temperature for 4 h", "result": 106.5, "unit": "%"},
      {"measurement": "Short-term stability, RR", "setting": "[4]; 8 pg/mL, at room temperature for 25 h", "result": 114.3, "unit": "%"},
      {"measurement": "Short-term stability, RR", "setting": "[4]; 320 pg/mL, at room temperature for 4 h", "result": 109.7, "unit": "%"},
      {"measurement": "Short-term stability, RR", "setting": "[4]; 320 pg/mL, at room temperature for 25 h", "result": 92.5, "unit": "%"},
      {"measurement": "Freeze-thaw stability, RR", "setting": "[7]; 8 pg/mL", "result": 86.0, "unit": "%"},
      {"measurement": "Freeze-thaw stability, RR", "setting": "[7]; 320 pg/mL", "result": 107.9, "unit": "%"},
      {"measurement": "Post-preparative stability, RR", "setting": "[5]; 8 pg/mL, autosampler set at 4°C for 24 h", "result": 89.5, "unit": "%"},
      {"measurement": "Post-preparative stability, RR", "setting": "[5]; 8 pg/mL, autosampler set at 4°C for 48 h", "result": 87.7, "unit": "%"},
      {"measurement": "Post-preparative stability, RR", "setting": "[5]; 320 pg/mL, autosampler set at 4°C for 24 h", "result": 88.0, "unit": "%"},
      {"measurement": "Post-preparative stability, RR", "setting": "[5]; 320 pg/mL, autosampler set at 4°C for 48 h", "result": 89.7, "unit": "%"},
      {"measurement": "Dose proportionality test using power model, Inference", "setting": "[6]; AUC0-last", "result": "Nonlinear"},
      {"measurement": "Dose proportionality test using power model, β", "setting": "[6]; AUC0-last", "result": 0.604},
      {"measurement": "Dose proportionality test using power model, Inference", "setting": "[6]; Cmax", "result": "Nonlinear"},
      {"measurement": "Dose proportionality test using power model, β", "setting": "[6]; Cmax", "result": 0.701},
      {"measurement": "Formation of ingredients: form found in Blood", "setting": "[8]", "result": "Nobiletin"},
      {"measurement": "Formation of ingredients: form found in Urine", "setting": "[8]; BQL = below the quantification limit", "result": "BQL"}
    ]}
  ]
}
